Structures are written as SMILES.

Test [1] relates to Tt preQ1-I RNA wildtype (RNA, riboswitch) CUGGGUCGCAGUAACCCCAGUUAACAAAACAAG
In words: methylation kinetics, anion-exchange HPLC (kobs versus ligand concentration). The following applies: 100 mM KCl, 2 mM MgCl2; MES, pH 6.0, 37 °C; apparent Michaelis constant; ligand methylates C15 N3 (covalent methyl transfer).

In test [2] the test system is Tt preQ1-I RNA C15U (RNA, riboswitch) CUGGGUCGCAGUAAUCCCAGUUAACAAAACAAG
In words: isothermal titration calorimetry. The following applies: 100 mM KCl, 2 mM MgCl2; 50 mM MES, pH 6.0, 20 °C. On the technique in general: In ITC the heat of successive injections is recorded.

Test [3] deals with Tt preQ1-I RNA wildtype (RNA, riboswitch) CUGGGUCGCAGUAACCCCAGUUAACAAAACAAG
In words: isothermal titration calorimetry. The settings on record: 100 mM KCl, 2 mM MgCl2; 50 mM MES, pH 6.0, 20 °C.

As for `COc1nc(N)nc2[nH]cc(CN)c12`, in test [1], the “Km,app” value is given as ~ 230 μM. Moreover, the “Kd^ITC” value in test [2] is on record as 72.2 ± 2.1 µM.

`NCc1c[nH]c2nc(N)[nH]c(=O)c12`: the “Kd^ITC” value in test [3] was determined as 0.043 ± 0.0019 µM.

Source of the values: article PMC8222354 (2021).
